Data: paper PMC5516794 (Journal of medicinal chemistry, 2017)

How the values were obtained:
TMEM16A [1] = biological target: T1, TMEM16A (Homo sapiens, UniProt Q5XXA6); test: Patch clamp, inside-out membrane patches from TMEM16A-expressing FRT cells; type: cell-based
T1 sequence (Q5XXA6 1-986): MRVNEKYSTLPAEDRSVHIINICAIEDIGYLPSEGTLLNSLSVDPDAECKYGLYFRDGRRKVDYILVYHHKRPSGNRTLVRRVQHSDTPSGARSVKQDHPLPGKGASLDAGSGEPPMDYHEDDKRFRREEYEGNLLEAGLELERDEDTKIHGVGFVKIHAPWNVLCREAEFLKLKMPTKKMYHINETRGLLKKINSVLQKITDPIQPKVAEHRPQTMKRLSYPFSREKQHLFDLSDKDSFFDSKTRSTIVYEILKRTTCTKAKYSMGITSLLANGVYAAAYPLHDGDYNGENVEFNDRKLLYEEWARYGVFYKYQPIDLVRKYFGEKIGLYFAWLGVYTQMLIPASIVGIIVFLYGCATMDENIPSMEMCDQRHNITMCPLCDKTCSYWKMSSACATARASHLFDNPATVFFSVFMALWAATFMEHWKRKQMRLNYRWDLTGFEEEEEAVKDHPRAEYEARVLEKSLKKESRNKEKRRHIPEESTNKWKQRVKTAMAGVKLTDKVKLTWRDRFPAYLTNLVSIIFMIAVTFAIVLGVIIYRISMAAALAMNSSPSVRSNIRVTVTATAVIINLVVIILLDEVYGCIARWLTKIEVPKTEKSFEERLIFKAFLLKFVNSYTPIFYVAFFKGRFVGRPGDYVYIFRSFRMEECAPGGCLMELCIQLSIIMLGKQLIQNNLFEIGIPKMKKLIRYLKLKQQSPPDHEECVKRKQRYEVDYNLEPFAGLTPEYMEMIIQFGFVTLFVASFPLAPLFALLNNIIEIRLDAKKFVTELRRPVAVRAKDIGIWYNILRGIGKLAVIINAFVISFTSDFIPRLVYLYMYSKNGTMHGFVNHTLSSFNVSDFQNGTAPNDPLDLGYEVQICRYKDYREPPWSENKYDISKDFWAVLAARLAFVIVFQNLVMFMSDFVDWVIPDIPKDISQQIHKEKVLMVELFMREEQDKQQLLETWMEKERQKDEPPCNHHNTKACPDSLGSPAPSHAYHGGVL

cytoplasmic calcium = test: Fluo-4 fluorescence measurement of ATP-stimulated cytoplasmic calcium elevation; type: cell-based; details: 1 μM
mouse ileum = test: Ex vivo intestinal contractility; details: added to bath, concentration-dependent
[2] = Shelf stability as solid or DMSO stock; type: physicochemical; details: as a solid or in DMSO stock solution
TMEM16A [3] = biological target: T1, TMEM16A; test: Short-circuit current assay in TMEM16A-expressing FRT cells; type: cell-based; details: Figure S2A

effect on TMEM16A membrane currents (TMEM16A [1]; 250 nM by perfusion, inside-out patch, free Ca2+ 305 nM): rapid inhibition of membrane currents
recovery of membrane currents after washout (TMEM16A [1]; after 250 nM, washout): fully recovered following washout
long-term shelf stability [2]: > 6 months
ionomycin- and carbachol-activated chloride conductance (TMEM16A [3]): inhibited
Structure (SMILES): Cc1ccccc1NC(=O)c1c(NC(=O)C(F)(F)Br)sc2c1CCCCC2 [Compound 10bm]
effect on ATP-stimulated cytoplasmic calcium (cytoplasmic calcium): not altered
spontaneous isometric contractions of ileum (mouse ileum): strongly inhibited
